Experimental findings from patent US20240002344A1, “COMPOUNDS, COMPOSITIONS AND METHODS FOR HISTONE LYSINE DEMETHYLASE INHIBITION” (FibroGen, Inc., priority 2020, published 2024) are described below.

Each structure is given as a SMILES string. Bounds are passed on as bounds.

One assay has as its target T1, recombinant human KDM5B (Homo sapiens, UniProt Q9UGL1).
T1 sequence (Q9UGL1 374-755 limits assumed): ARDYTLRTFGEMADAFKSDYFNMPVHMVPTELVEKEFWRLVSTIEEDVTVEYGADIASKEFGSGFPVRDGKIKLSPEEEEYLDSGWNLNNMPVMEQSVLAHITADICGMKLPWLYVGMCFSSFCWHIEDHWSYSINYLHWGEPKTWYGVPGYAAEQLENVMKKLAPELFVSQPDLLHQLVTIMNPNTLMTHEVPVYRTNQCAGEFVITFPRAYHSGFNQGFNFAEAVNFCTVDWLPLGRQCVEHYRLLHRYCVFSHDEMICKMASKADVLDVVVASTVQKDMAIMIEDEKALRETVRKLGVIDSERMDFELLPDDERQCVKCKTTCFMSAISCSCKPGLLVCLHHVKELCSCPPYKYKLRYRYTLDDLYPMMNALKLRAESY
In words: 14CO2 capture enzymatic assay (decarboxylation of [1-14C] αKG), KDM5B. The conditions noted are these: 10 μM [1-14C] αKG, 90 μM non-labeled αKG, 50 μM peptide substrate, 37° C., 1 hour, final 1% DMSO. In kind it is biochemical. As for the experimental part:
(§1) Enzymatic activity was determined based on the capture of ^14CO2 released by the decarboxylation of [1-^14C] αKG (Zhang et al., Anal. Biochem., 1998, vol. 271, pp. 137-142). [1-^14C]alphaketoglutarate (αKG) was from Perkin-Elmer, H3K4me3 and H3K9me3 peptides were from Mimotopes. All other reagents were from Sigma. Reaction mixtures included the following components: Fe(SO4), [1-^14C] αKG, non-labeled αKG, ascorbate, peptide-substrate (H3K4me3: H-ARTK(me3)QTARKSTGGKAPRKQLA-OH. H3K9me3: H-ARTKQTARK(me3)STGGKAPRKQLA-OH), NaCl, Tween-20 and catalase in 25 mM HEPES buffer, pH 7.4. The enzymatic reactions were initiated by addition of recombinant human KDM5B or KDM4A enzyme (truncated enzyme produced in house by method and using sequence disclosed in Ng et al, Nature 448:87-91, 2007). The reactions were performed in 96-well microtiter plates (20 μL total assay volume) (Greiner #650201). ^14CO2 was captured on a glass fiber filter paper (Cat. No. IH-201-A, Inotech Biosystems International) soaked with saturated Ba(OH)2 that was laid on top of the 96-well plate. A microtiter plate sealer film (Thermal Seal cat #T7961100) was applied to the filter paper. The plate and filter paper were sandwiched between two custom made aluminum plates (Advanced Component Manufacturing, Burlingame, CA) and transferred to a 37° C. oven and allowed to incubate for 1 hour. After incubation, the filter paper was dried in a 103° C. oven for 40-60 minutes. To determine percent turnover, aliquots of the reaction mixture were spotted onto the filter paper and the filter paper was dried again. The dry filter paper was exposed to a storage phosphor screen for 24-72 hours and the images recorded using a Typhoon FLA 7000 Imager (Amersham Biosciences, Piscataway, NJ). Integrated spot intensities corresponding to control reactions lacking the enzyme were subtracted from integration results for enzyme containing reactions and data were converted to enzyme dependent percent ^14CO2 release. All enzymatic reactions were run in duplicates.
(§2) For IC50 determination, a 3-fold dilution series of compound was prepared and added to the reaction mixture (final 1% DMSO, v/v) prior to enzyme addition. The final reagent concentrations were: 10 μM Fe(SO4), 10 μM [1-^14C] αKG, 90 μM non-labeled αKG, 2 mM ascorbate, 50 μM peptide substrate, 75 mM NaCl, 0.01% Tween-20 and ˜2 units/μL catalase. IC50s were determined by non-linear fitting using Grafit version 7.0.

In another assay the target is T2, recombinant human KDM4A (Homo sapiens, UniProt O75164).
T2 construct: made in house
T2 sequence (O75164 1-359 limits assumed): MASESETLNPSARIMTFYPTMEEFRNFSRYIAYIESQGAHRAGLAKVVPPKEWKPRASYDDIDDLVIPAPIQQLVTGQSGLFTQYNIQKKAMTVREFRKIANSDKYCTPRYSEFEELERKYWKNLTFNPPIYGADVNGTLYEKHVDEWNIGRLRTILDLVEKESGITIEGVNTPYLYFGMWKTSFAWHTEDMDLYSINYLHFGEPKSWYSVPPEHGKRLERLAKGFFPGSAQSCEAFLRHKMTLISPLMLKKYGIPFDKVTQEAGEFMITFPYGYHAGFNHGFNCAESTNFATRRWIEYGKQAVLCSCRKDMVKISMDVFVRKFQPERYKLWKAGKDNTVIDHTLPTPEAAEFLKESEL
The assay is described as follows: 14CO2 capture enzymatic assay (decarboxylation of [1-14C] αKG), KDM4A. In kind it is biochemical. The conditions noted are these: 10 μM [1-14C] αKG, 90 μM non-labeled αKG, 50 μM peptide substrate, 37° C., 1 hour, final 1% DMSO. How it is done:
as §1, §2

For orientation: IC50 means the midpoint of a concentration-inhibition curve. On to `Cc1cc(C#N)cc(C)c1Cc1cc(C#N)c(O)c(C(=O)CCC(=O)O)n1` [Example 153, 4-[4-Cyano-6-(4-cyano-2,6-dimethyl-benzyl)-3-hydroxy-pyridin-2-yl]-4-oxo-butyric acid], for which the IC50 came out at 320 nM at recombinant human KDM5B and 17000 nM on recombinant human KDM4A.

Turning to `N#Cc1cc(-c2ccc(OC(F)(F)F)cc2)nc(C(=O)CCC(=O)O)c1O` [Example 67, 4-[4-Cyano-3-hydroxy-6-(4-trifluoromethoxy-phenyl)-pyridin-2-yl]-4-oxo-butyric acid], the figures for the IC50 at recombinant human KDM5B and at recombinant human KDM4A were 240 nM and more than 40000 nM, respectively.

With `Cc1cccc(-c2cc(C#N)c(O)c(C(=O)CCC(=O)O)n2)c1Cl` [Example 101, 4-[6-(2-Chloro-3-methyl-phenyl)-4-cyano-3-hydroxy-pyridin-2-yl]-4-oxo-butyric acid], the results for the half-maximal inhibitory concentration (IC50) at recombinant human KDM5B and on recombinant human KDM4A were 310 nM and more than 40000 nM, respectively.

With `N#Cc1cc(Cc2cccc(OC(F)(F)F)c2)nc(C(=O)CCC(=O)O)c1O` [Example 48, 4-[4-Cyano-3-hydroxy-6-(3-trifluoromethoxy-benzyl)-pyridin-2-yl]-4-oxo-butyric acid], the IC50 is 310 nM at recombinant human KDM5B and more than 40000 nM at recombinant human KDM4A.

`N#Cc1cc(-c2ccc(F)cc2)nc(C(=O)CCC(=O)O)c1O` [Example 19, 4-[4-Cyano-6-(4-fluoro-phenyl)-3-hydroxy-pyridin-2-yl]-4-oxo-butyric acid]: the results for the IC50 at recombinant human KDM5B and on recombinant human KDM4A were 230 nM and more than 40000 nM, respectively.

Consider `Cc1ccc(Cl)c(-c2cc(C#N)c(O)c(C(=O)CCC(=O)O)n2)c1` [Example 102, 4-[6-(2-Chloro-5-methyl-phenyl)-4-cyano-3-hydroxy-pyridin-2-yl]-4-oxo-butyric acid], for which the IC50 is 400 nM at recombinant human KDM5B and more than 40000 nM on recombinant human KDM4A.

Take `N#Cc1nc(-c2ccccc2)cc(C(=O)CCC(=O)O)c1O` [Example 157, 4-(2-Cyano-3-hydroxy-6-phenyl-pyridin-4-yl)-4-oxo-butyric acid]: the IC50 at recombinant human KDM5B was 1400 nM; at recombinant human KDM4A, more than 40000 nM.

Consider `N#Cc1cc(Cc2ccc(-c3ccccc3)cc2)nc(C(=O)CCC(=O)O)c1O` [Example 50, 4-(6-Biphenyl-4-ylmethyl-4-cyano-3-hydroxy-pyridin-2-yl)-4-oxo-butyric acid], for which the IC50 on recombinant human KDM5B is 390 nM; at recombinant human KDM4A, more than 40000 nM.

As to `N#Cc1cc(Cc2c(Cl)cc(Cl)cc2Cl)nc(C(=O)CCC(=O)O)c1O` [Example 144, 4-[4-Cyano-3-hydroxy-6-(2,4,6-trichloro-benzyl)-pyridin-2-yl]-4-oxo-butyric acid], the half-inhibitory concentration (IC50) at recombinant human KDM5B was determined as 180 nM; at recombinant human KDM4A, 28000 nM.

For `N#Cc1cc(Br)c(O)c(C(=O)CCC(=O)O)n1` [Example 2, 4-(4-Bromo-6-cyano-3-hydroxy-pyridin-2-yl)-4-oxo-butyric acid], the IC50 at recombinant human KDM5B was determined as 310 nM; at recombinant human KDM4A, 19000 nM.

Regarding `COc1ccc(-c2cc(C#N)c(O)c(C(=O)CCC(=O)O)n2)c(Cl)c1` [Example 81, 4-[6-(2-Chloro-4-methoxy-phenyl)-4-cyano-3-hydroxy-pyridin-2-yl]-4-oxo-butyric acid], the IC50 was 340 nM at recombinant human KDM5B and more than 40000 nM at recombinant human KDM4A.

On to `N#Cc1cc(-c2ccccc2)nc(C(=O)CCC(=O)O)c1O` [Example 7, 4-(4-Cyano-3-hydroxy-6-phenyl-pyridin-2-yl)-4-oxo-butyric acid], for which the half-maximal inhibitory concentration (IC50) at recombinant human KDM5B is 210 nM; on recombinant human KDM4A, more than 40000 nM.

In the case of `Cc1ccccc1Oc1cc(C#N)c(O)c(C(=O)CCC(=O)O)c1` [Example 140, 4-(3-Cyano-2-hydroxy-5-o-tolyloxy-phenyl)-4-oxo-butyric acid], the values for the IC50 at recombinant human KDM5B and at recombinant human KDM4A were 330 nM and more than 40000 nM, respectively.

Take `N#Cc1cc(Cc2c(Cl)cc(F)cc2Cl)nc(C(=O)CCC(=O)O)c1O` [Example 126, 4-[4-Cyano-6-(2,6-dichloro-4-fluoro-benzyl)-3-hydroxy-pyridin-2-yl]-4-oxo-butyric acid]: the IC50 came to 70 nM on recombinant human KDM5B and 2900 nM on recombinant human KDM4A.

For the compound `N#Cc1cc(Oc2ccc(F)cc2)cc(C(=O)CCC(=O)O)c1O` [Example 142, 4-[3-Cyano-5-(4-fluoro-phenoxy)-2-hydroxy-phenyl]-4-oxo-butyric acid], the results for the IC50 at recombinant human KDM5B and at recombinant human KDM4A were 280 nM and more than 40000 nM, respectively.

Turning to `Cc1ccc(C)c(-c2cc(C#N)c(O)c(C(=O)CCC(=O)O)n2)c1` [Example 94, 4-[4-Cyano-6-(2,5-dimethyl-phenyl)-3-hydroxy-pyridin-2-yl]-4-oxo-butyric acid], the IC50 is 270 nM on recombinant human KDM5B and more than 40000 nM at recombinant human KDM4A.

Consider `COc1ccc(Cl)c(-c2cc(C#N)c(O)c(C(=O)CCC(=O)O)n2)c1` [Example 106, 4-[6-(2-Chloro-5-methoxy-phenyl)-4-cyano-3-hydroxy-pyridin-2-yl]-4-oxo-butyric acid], for which the IC50 at recombinant human KDM5B was 350 nM; on recombinant human KDM4A it was more than 40000 nM.

In the case of `N#Cc1cc(-c2cccc(F)c2)nc(C(=O)CCC(=O)O)c1O` [Example 20, 4-[4-Cyano-6-(3-fluoro-phenyl)-3-hydroxy-pyridin-2-yl]-4-oxo-butyric acid], the IC50 at recombinant human KDM5B is 170 nM; at recombinant human KDM4A it was more than 40000 nM.

On to `Cc1cccc(Cl)c1Cc1cc(C#N)c(O)c(C(=O)CCC(=O)O)n1` [Example 123, 4-[6-(2-Chloro-6-methyl-benzyl)-4-cyano-3-hydroxy-pyridin-2-yl]-4-oxo-butyric acid], for which the IC50 at recombinant human KDM5B worked out at 120 nM; at recombinant human KDM4A, 3000 nM.

In the case of `Cc1ccc(-c2cc(C#N)c(O)c(C(=O)CCC(=O)O)n2)c(Cl)c1` [Example 84, 4-[6-(2-Chloro-4-methyl-phenyl)-4-cyano-3-hydroxy-pyridin-2-yl]-4-oxo-butyric acid], the IC50 on recombinant human KDM5B was 460 nM; on recombinant human KDM4A, more than 40000 nM.

Take `N#Cc1cc(Sc2ccccc2)nc(C(=O)CCC(=O)O)c1O` [Example 78, 4-(4-Cyano-3-hydroxy-6-phenylsulfanyl-pyridin-2-yl)-4-oxo-butyric acid]: the figures for the IC50 at recombinant human KDM5B and on recombinant human KDM4A were 90 nM and more than 40000 nM, respectively.

In the case of `N#Cc1cc(Oc2cccc(Cl)c2)cc(C(=O)CCC(=O)O)c1O` [Example 138, 4-[5-(3-Chloro-phenoxy)-3-cyano-2-hydroxy-phenyl]-4-oxo-butyric acid], the IC50 on recombinant human KDM5B was 390 nM; at recombinant human KDM4A, more than 40000 nM.

For the compound `Cc1ccc(Cl)c(Cc2cc(C#N)c(O)c(C(=O)CCC(=O)O)n2)c1Cl` [Example 155, 4-[4-Cyano-6-(2,6-dichloro-3-methyl-benzyl)-3-hydroxy-pyridin-2-yl]-4-oxo-butyric acid], the half-maximal inhibitory concentration (IC50) came out at 180 nM at recombinant human KDM5B and 34000 nM at recombinant human KDM4A.

`N#Cc1cc(C(F)(F)F)c(O)c(C(=O)CCC(=O)O)n1` [Example 8, 4-(6-Cyano-3-hydroxy-4-trifluoromethyl-pyridin-2-yl)-4-oxo-butyric acid]: the IC50 on recombinant human KDM5B came out at 270 nM; on recombinant human KDM4A, 13000 nM.

With `N#Cc1cc(Cc2ccccc2F)nc(C(=O)CCC(=O)O)c1O` [Example 43, 4-[4-Cyano-6-(2-fluoro-benzyl)-3-hydroxy-pyridin-2-yl]-4-oxo-butyric acid], the half-inhibitory concentration (IC50) was determined as 150 nM at recombinant human KDM5B and 37000 nM at recombinant human KDM4A.
